Among the data in US7973063B2, “Methods for activating PPAR gamma-type receptors” (Galderma Research & Development, priority 2004, dated 2011) are Kd values, retold here.

Where two headings read alike, the source gives them in different places.

The target of one assay is T1, PPARα (Homo sapiens, UniProt Q07869).
T1 construct: Either is a handle for the test and no part of the key
T1 sequence (Q07869 200-468 limits assumed): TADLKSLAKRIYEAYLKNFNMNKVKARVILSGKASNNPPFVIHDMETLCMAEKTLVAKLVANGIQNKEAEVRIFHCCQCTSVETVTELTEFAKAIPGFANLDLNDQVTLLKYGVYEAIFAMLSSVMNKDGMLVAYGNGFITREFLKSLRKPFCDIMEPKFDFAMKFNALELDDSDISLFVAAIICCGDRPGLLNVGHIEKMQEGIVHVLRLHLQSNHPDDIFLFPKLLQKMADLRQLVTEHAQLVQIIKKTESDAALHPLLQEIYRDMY
Kind of assay: Crossed-curve PPAR transactivation assay (PPARα). Format: cell-based. Particulars: HeLN cells stably transfected with Gal-hPPARα and luciferase reporter; crossed curves vs reference agonist, Schild regression; read-out: PPARα KdApp. Here is the method: (§1) Activation of the PPAR receptors by an agonist (activator) in HeLN cells leads to the expression of a reporter gene, luciferase, which, in the presence of a substrate, generates light. The modulation of the PPAR receptors is measured by quantifying the luminescence produced after incubation of the cells in the presence of a reference agonist. The ligands will displace the agonist from its site. The measurement of the activity is performed by quantifying the light produced. This measurement makes it possible to determine the modulatory activity of the compounds according to the invention by the determination of the constant which is the affinity of the molecule for the PPAR receptor. Since this value can fluctuate depending on the basal activity and the expression of the receptor, it is referred to as apparent Kd (KdApp in nM).
(§2) To determine this constant, “crossed curves” for the test product, against a reference agonist, are prepared using a 96-well plate: 10 concentrations of the test product plus a concentration 0 are arranged in a line, and 7 concentrations of the agonist plus a concentration 0 are arranged in a column. This is 88 measurement points for 1 product and 1 receptor. The remaining 8 wells are used for repeatability controls.
(§3) Measurements are also taken for total agonist controls with the same products.
(§4) The HeLN cell lines used are stable transfectants containing the plasmids ERE-βGlob-Luc-SV-Neo (reporter gene) and PPAR (α, δ, γ) Gal-hPPAR. These cells are seeded in 96-well plates at the rate of 10 000 cells per well in 100 μl of DMEM medium without phenol red and supplemented with 10% of defatted calf serum. The plates are then incubated for 16 hours at 37° C. and 7% CO2.
(§5) The various dilutions of the test products and of the reference ligand are added at the rate of 5 μl per well. The plates are subsequently incubated for 18 hours at 37° C. and 7% CO2. The culture medium is removed by turning over and 100 μl of a 1:1 PBS/luciferin mixture are added to each well. After 5 minutes, the plates are read using the luminescence reader.

The next assay concerns the target T2, PPARδ (Homo sapiens, UniProt Q03181).
T2 construct: Either is a handle for the test and no part of the key
T2 sequence (Q03181 171-441 limits assumed): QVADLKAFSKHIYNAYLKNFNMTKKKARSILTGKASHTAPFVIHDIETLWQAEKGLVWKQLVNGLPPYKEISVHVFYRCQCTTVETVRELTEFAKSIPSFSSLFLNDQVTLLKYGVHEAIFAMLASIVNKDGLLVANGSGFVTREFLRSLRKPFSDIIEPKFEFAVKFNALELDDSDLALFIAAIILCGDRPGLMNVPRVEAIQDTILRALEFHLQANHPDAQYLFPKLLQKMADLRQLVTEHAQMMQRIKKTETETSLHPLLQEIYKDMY
The experiment in a line: Crossed-curve PPAR transactivation assay (PPARδ). The class given is cell-based. The note with it: HeLN cells stably transfected with Gal-hPPARδ and luciferase reporter; crossed curves vs reference agonist, Schild regression; read-out: PPARδ KdApp. Here is the method: as §1, §2, §3, §4, §5
On the technique in general: In a reporter assay the amount or activity of a reporter protein is the signal.

In assay [1] the target is T3, PPARγ (Homo sapiens, UniProt P37231).
T3 construct: PPARγ KdApp; other: HeLN cells stably transfected with Gal-hPPARγ and luciferase reporter; KdApp in nM (PPARγ receptors), compounds according to the present invention; Either is a handle for the test and no part of the key
T3 sequence (P37231 238-505 limits assumed): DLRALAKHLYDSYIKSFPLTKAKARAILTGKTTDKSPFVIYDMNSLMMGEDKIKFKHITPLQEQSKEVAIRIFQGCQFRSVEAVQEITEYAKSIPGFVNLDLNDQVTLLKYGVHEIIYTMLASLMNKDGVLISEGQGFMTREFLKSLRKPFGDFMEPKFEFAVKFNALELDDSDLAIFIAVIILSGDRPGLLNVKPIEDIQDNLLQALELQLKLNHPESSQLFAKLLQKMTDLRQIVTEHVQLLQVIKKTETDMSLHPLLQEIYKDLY
Kind of assay: Crossed-curve PPAR transactivation assay (PPARγ). Format: cell-based. As to the method: as §1, §2, §3, §4, §5

Assay [2] concerns the target PPARγ. The note with it: Table 1, PPARγ receptors; values described for the compounds of FR-2,812,876; read-out: KdApp in nM (PPARγ receptors), compounds according to Patent FR 2 812 876; cited from earlier work.
Setting [3] is: HeLN cells stably transfected with Gal-hPPARγ and luciferase reporter, crossed curves vs reference agonist, Schild regression, read-out: PPARγ KdApp.

With `CCCCCCCNC(=O)N(C)c1cccc(-c2ccc(C[C@H](OCC)C(=O)O)cc2)c1` [Example 1, 2(S)-Ethoxy-3-[3′-(3-heptyl-1-methylureido)biphenyl-4-yl]propanoic acid], the Kd at PPARα was 30 nM; at PPARδ it was 250 nM; on PPARγ [1] (setting [3]), less than 1 nM; on PPARγ [1] (Table 1, PPARγ receptors, read-out: KdApp in nM (PPARγ receptors), compounds according to the present invention), less than 1 nM.

Regarding `CCCCCNC(=O)N(C)c1cccc(-c2ccc(C[C@H](OCC)C(=O)O)cc2)c1` [Example 2, 2(S)-Ethoxy-3-[3′-(1-methyl-3-pentylureido)biphenyl-4-yl]propanoic acid], the Kd on PPARα came out at 250 nM; on PPARδ, 2000 nM; on PPARγ [1] (setting [3]) it was 0.03 nM.

With `CCCCCCCNC(=O)N(C)c1cccc(-c2ccc(C[C@H](OCCC)C(=O)O)cc2)c1` [Example 4, 2-(S)-Propyloxy-3-[3′-(3-heptyl-1-methylureido)biphenyl-4-yl]propanoic acid], the Kd on PPARα was 30 nM; on PPARδ, 500 nM; at PPARγ [1] (setting [3]), 0.025 nM.

For the compound `CCCCCCCNC(=O)N(C)c1cccc(-c2ccc(C[C@H](OCc3ccccc3)C(=O)O)cc2)c1` [Example 5, 2(S)-Benzyloxy-3-[3′-(3-heptyl-1-methylureido)biphenyl-4-yl]propanoic acid], the Kd on PPARα worked out at 250 nM; at PPARγ [1] (setting [3]) it was 0.03 nM.

Consider `C=CCO[C@@H](Cc1ccc(-c2cccc(N(C)C(=O)NCCCCCCC)c2)cc1)C(=O)O` [Example 6, 2(S)-Allyloxy-3-[3′-(3-heptyl-1-methylureido)biphenyl-4-yl]propanoic acid], for which the values for the Kd at PPARα, at PPARδ and on PPARγ [1] (setting [3]) were 2 nM, 50 nM and 0.003 nM, respectively.

As to `CCO[C@@H](Cc1ccc(-c2cccc(CN(C)C(=O)c3ccccc3)c2)cc1)C(=O)O` [Example 13, (S)-2-Ethoxy-3-(3′-{[methyl(1-phenylmethanoyl)amino]methyl}biphenyl-4-yl)propionic acid], at PPARγ [2], the Kd was 500 nM.

On to `CN(Cc1cccc(-c2ccc(CC3SC(=O)NC3=O)cc2)c1)C(=O)C(C)(C)C` (centres unmarked) [Example 22, N-[4′-(2,4-Dioxothiazolidin-5-ylmethyl)biphenyl-3-ylmethyl]-2,2,N-trimethylpropionamide], for which the Kd at PPARγ [2] was 250 nM.

As to `CCCCCCCCNC(=O)c1cccc(-c2ccc(CC3SC(=O)NC3=O)cc2)c1` (centres unmarked) [Example 23, N-Octyl-4′-(2,4-dioxothiazolidin-5-ylmethyl)biphenyl-3-carboxamide], the Kd on PPARγ [2] is 2000 nM.

Turning to `CCCCCCCCCC(=O)N(C)Cc1cccc(-c2ccc(CC3SC(=O)NC3=O)cc2)c1` (centres unmarked) [Example 32, N-[4′-(2,4-Dioxothiazolidin-5-ylmethyl)biphenyl-3-ylmethyl]-N-methyldecanamide], on PPARγ [2], the Kd is 250 nM.

Take `CCCCCCC(=O)N(C)Cc1cccc(-c2ccc(CC3SC(=O)NC3=O)cc2)c1` (centres unmarked) [Example 35, N-[4′-(2,4-Dioxothiazolidin-5-ylmethyl)biphenyl-3-ylmethyl]-N-methylheptanamide]: on PPARγ [2], the Kd is 1000 nM.
